{
  "source": "patent US7786041B2",
  "about": "“Synergistic crop plant-compatible herbicidal compositions comprising herbicides from the group of the benzoylcyclohexanediones” (priority 2005, dated 2010)",
  "key": {"[1]": {"test_system": "harmful plants Abutilon theophrasti, Ambrosia elatior, Digitaria sanguinalis, Echinochloa crus galli, Pharbitis purpureum, Fallopia convolvulus, Setaria …", "test": "Herbicidal post-emergence action, second test series, mean over ten harmful plants", "format": "in vivo", "settings": "Table 5, mean value of the herbicidal actions against ten harmful plants, each herbicide 200 g of a.i./ha, safener C1 100 g of a.i./ha", "procedure": "(§1) Seeds of monocotyledonous and dicotyledonous weed and crop plants are placed into sandy loam in wood fiber pots or in plastic pots, covered with soil and cultivated in a greenhouse, including during the vegetation period outdoors outside of the greenhouse, under good growth conditions. 2-3 weeks after sowing, the test plants are treated at the one- to three-leaf stage. The test compounds, formulated as wettable powders (WP) or liquid (EC) are, in various dosages with a water application rate of 300 l/ha (converted), with added wetting agent (0.2 to 0.3%), sprayed onto the plants and the surface of the soil. 3 to 4 weeks after the treatment of the test plants, the effect of the preparations is rated visually in comparison to untreated controls (herbicidal effect in percent (%): 100% effect=plants have died, 0% effect=like control plants).\n(§2) In a second test series, the herbicidal action and the damage to corn of the compositions according to the invention (A+Bx+C1) was compared to that of the herbicide alone (A) and to that of a herbicidal composition (A+C1) known from the prior art."}, "[2]": {"test_system": "corn", "test": "Post-emergence damage to corn, second test series", "settings": "in vivo", "procedure": "as §1, §2"}},
  "data": [
    {"molecule": "CS(=O)(=O)c1ccc(C(=O)C2C(=O)CCCC2=O)c(Cl)c1COCC(F)(F)F", "note": "[A]", "values": [
      {"measurement": "Herbicidal action", "setting": "[1]", "result": 86, "unit": "%"},
      {"measurement": "Damage to corn", "setting": "[2]", "result": 11, "unit": "%"}
    ]}
  ]
}
